Test results as given in paper PMC8119466, “A screen of FDA-approved drugs identifies inhibitors of protein tyrosine phosphatase 4A3 (PTP4A3 or PRL-3)” (Scientific Reports, 2021).
Counter-ions that a name gives are not always drawn. Like-named read-outs stand apart in the source and are kept apart here.

Experiments:
Format in all cases: biochemical
[1] = target: T1, recombinant PRL-3 (Homo sapiens, UniProt O75365); experiment: In vitro phosphatase assay (DiFMUP hydrolysis), PRL-3; further: test concentration or dose not given here
T1 construct: 6xHis (N, cleaved yes); made in house; host or cells: E. coli One Shot BL21 Star

[2] = target: T2, recombinant PRL-2 (Homo sapiens, UniProt Q12974); experiment: In vitro phosphatase assay (DiFMUP hydrolysis), PRL-2;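 further: PRL-2 activity read as DiFMUP hydrolysis after 20 min at room temperature with drug, enzyme first pre-reduced at 4 °C for 20 min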
T2 construct: 6xHis (N, cleaved yes); made in house; host or cells: E. coli One Shot BL21 Star
T2 sequence (Q12974 1-167): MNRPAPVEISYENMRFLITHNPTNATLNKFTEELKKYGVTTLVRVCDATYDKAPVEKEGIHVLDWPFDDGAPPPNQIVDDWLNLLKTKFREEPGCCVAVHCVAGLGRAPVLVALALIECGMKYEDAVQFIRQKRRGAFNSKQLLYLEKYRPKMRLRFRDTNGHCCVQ

[3] = target: T3, recombinant PRL-1 (Homo sapiens, UniProt Q93096); experiment: In vitro phosphatase assay (DiFMUP hydrolysis), PRL-1; further: test concentration or dose not given here
T3 construct: 6xHis (N, cleaved yes); made in house; host or cells: E. coli One Shot BL21 Star
T3 sequence (Q93096 1-173): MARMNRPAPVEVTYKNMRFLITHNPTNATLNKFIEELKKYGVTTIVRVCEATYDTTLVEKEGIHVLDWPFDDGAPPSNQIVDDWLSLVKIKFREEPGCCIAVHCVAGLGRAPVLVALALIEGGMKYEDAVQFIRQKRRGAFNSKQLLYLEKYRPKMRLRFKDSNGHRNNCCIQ

[4] = FDA-approved drug screen, compared to DMSO
[5] = FDA-approved drug screen, activity compared to DMSO

T1 sequence (O75365 whole entry): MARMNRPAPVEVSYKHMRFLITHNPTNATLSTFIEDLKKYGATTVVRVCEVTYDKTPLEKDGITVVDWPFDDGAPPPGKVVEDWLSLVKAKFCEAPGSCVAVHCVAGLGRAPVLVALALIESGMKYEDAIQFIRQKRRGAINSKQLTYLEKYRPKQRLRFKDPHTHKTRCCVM

| SMILES | % Phosphatase Activity (compared to DMSO) PRL-3 [1, 4] | % Phosphatase Activity (compared to DMSO) PRL-2 [2, 4] | % Phosphatase Activity (compared to DMSO) PRL-1 [3, 4] | other results |
| --- | --- | --- | --- | --- |
| C=CCNC(N)=S [Allylthiourea] | 86% | 121% | 106% | – |
| O=c1oc2cc(O)ccc2s1 [Tioxolone] | – | – | – | % Phosphatase Activity (compared to DMSO) PRL-3 [1, 5]: 92%; % Phosphatase Activity (compared to DMSO) PRL-2 [2, 5]: 124%; % Phosphatase Activity (compared to DMSO) PRL-1 [3, 5]: 102% |
| CCC[C@H](NC(=O)[C@@H]1[C@H]2CCC[C@H]2CN1C(=O)[C@@H](NC(=O)[C@@H](NC(=O)c1cnccn1)C1CCCCC1)C(C)(C)C)C(=O)C(=O)NC1CC1 [Telaprevir (VX-950)] | – | – | – | % Phosphatase Activity (compared to DMSO) PRL-3 [1, 5]: 92%; % Phosphatase Activity (compared to DMSO) PRL-2 [2, 5]: 104%; % Phosphatase Activity (compared to DMSO) PRL-1 [3, 5]: 95% |
| CCOC(=O)N1CCC(=C2c3ccc(Cl)cc3CCc3cccnc32)CC1 [Loratadine] | 65% | 90% | 89% | – |
| NC(=O)c1ncn([C@@H]2O[C@H](CO)[C@@H](O)[C@H]2O)c1O [Mizoribine] | 85% | 78% | 93% | – |
| C[C@@H]1CCN(C(=O)CC#N)C[C@@H]1N(C)c1ncnc2[nH]ccc12.O=C(O)CC(O)(CC(=O)O)C(=O)O [Tofacitinib (CP-690550) Citrate] | – | – | – | % Phosphatase Activity (compared to DMSO) PRL-3 [1, 5]: 104%; % Phosphatase Activity (compared to DMSO) PRL-2 [2, 5]: 91%; % Phosphatase Activity (compared to DMSO) PRL-1 [3, 5]: 109% |
| CCN(CC)CC#CCOC(=O)C(O)(c1ccccc1)C1CCCCC1 (stereo not drawn) [Oxybutynin chloride] | 75% | 85% | 88% | – |
| O=c1[nH]c(=O)n([C@H]2C[C@H](O)[C@@H](CO)O2)cc1F [Floxuridine] | 70% | 100% | 93% | – |
| CN1CCC(=C2c3ccccc3CCn3c(C=O)cnc32)CC1 [Alcaftadine] | 85% | 89% | 98% | – |
| COc1ccc(CN=c2[nH]c(N3CCC[C@H]3CO)ncc2C(=O)NCc2ncccn2)cc1Cl [Avanafil] | 97% | 112% | 98% | – |
| CN(C)c1ccc(C(=C2C=CC(=[N+](C)C)C=C2)c2ccc(N(C)C)cc2)cc1 [Crystal Violet] | 85% | 86% | 79% | – |
| Nc1nc2c(ncn2COCCO)c(=O)[nH]1 [Aciclovir] | 89% | 99% | 85% | – |
| Cc1c(-c2ccnn2C)cc(C(=O)NCc2ccc(S(C)(=O)=O)cn2)c(=O)n1-c1cccc(C(F)(F)F)c1 [Alvelestat (AZD9668)] | 121% | 114% | 138% | – |
| CCCc1ncc(C[n+]2ccccc2C)c(N)n1.Cl.[Cl-] [Amprolium HCl] | 94% | 97% | 97% | – |
| C/C(=C\c1csc(C)n1)[C@@H]1C[C@@H]2O[C@]2(C)CCC[C@H](C)[C@H](O)[C@@H](C)C(=O)C(C)(C)[C@@H](O)CC(=O)O1 [Epothilone B (EPO906, Patupilone)] | 80% | 93% | 98% | – |
| Cl.Cl.Cl.O[C@@H](COc1cccc2ncccc12)CN1CCN([C@@H]2c3ccccc3[C@@H]3[C@H](c4ccccc42)C3(F)F)CC1 [Zosuquidar (LY335979) 3HCl] | – | – | – | % Phosphatase Activity (compared to DMSO) PRL-3 [1, 5]: 91%; % Phosphatase Activity (compared to DMSO) PRL-2 [2, 5]: 98%; % Phosphatase Activity (compared to DMSO) PRL-1 [3, 5]: 107% |
| O=C1NC(=O)[C@@H](c2cn3c4c(cccc24)CCC3)[C@@H]1c1c[nH]c2ccccc12 [Tivantinib (ARQ 197)] | – | – | – | % Phosphatase Activity (compared to DMSO) PRL-3 [1, 5]: 90%; % Phosphatase Activity (compared to DMSO) PRL-2 [2, 5]: 83%; % Phosphatase Activity (compared to DMSO) PRL-1 [3, 5]: 95% |
| COc1cc([C@@H]2c3cc4c(cc3[C@@H](O[C@@H]3O[C@@H]5CO[C@@H](c6cccs6)O[C@H]5[C@H](O)[C@H]3O)[C@H]3COC(=O)[C@H]23)OCO4)cc(OC)c1O [Teniposide] | – | – | – | % Phosphatase Activity (compared to DMSO) PRL-3 [1, 5]: 97%; % Phosphatase Activity (compared to DMSO) PRL-2 [2, 5]: 98%; % Phosphatase Activity (compared to DMSO) PRL-1 [3, 5]: 95% |
| Clc1ccc(C(Cn2ccnc2)OCc2c(Cl)cccc2Cl)c(Cl)c1 (stereo not drawn) [Isoconazole nitrate] | 89% | 110% | 112% | – |
| CN(C)CC(c1ccc(O)cc1)C1(O)CCCCC1 (stereo not drawn) [Desvenlafaxine] | 70% | 105% | 95% | – |

| SMILES | % Phosphatase Activity (compared to DMSO) PRL-3 [1, 4] | % Phosphatase Activity (compared to DMSO) PRL-2 [2, 4] | % Phosphatase Activity (compared to DMSO) PRL-1 [3, 4] | other results |
| --- | --- | --- | --- | --- |
| c1ccc2c(CC3=NCCN3)cccc2c1 [Naphazoline HCl] | 83% | 102% | 100% | – |
| CCCCCCc1ccc(O)cc1O [Hexylresorcinol] | 84% | 83% | 90% | – |
| Nc1ccc(C(=O)NCC(=O)[O-])cc1.O.[Na+] [Sodium 4-aminohippurate Hydrate] | – | – | – | % Phosphatase Activity (compared to DMSO) PRL-3 [1, 5]: 84%; % Phosphatase Activity (compared to DMSO) PRL-2 [2, 5]: 87%; % Phosphatase Activity (compared to DMSO) PRL-1 [3, 5]: 84% |
| O=NN(CCCl)C(=O)NC1CCCCC1 [Lomustine] | 94% | 105% | 96% | – |
| C[C@@H]1C[C@H]2[C@@H]3CCC4=CC(=O)C=C[C@]4(C)[C@@]3(F)[C@@H](O)C[C@]2(C)[C@@]1(O)C(=O)CO [Dexamethasone (DHAP)] | 66% | 94% | 99% | – |
| CC(C)(O)c1ccccc1CC[C@@H](SCC1(CC(=O)O)CC1)c1cccc(/C=C/c2ccc3ccc(Cl)cc3n2)c1 [Montelukast Sodium] | 182% | 161% | 172% | – |
| Cc1ccc(=O)n(-c2ccccc2)c1 [Pirfenidone] | 97% | 137% | 114% | – |
| COCCCN1CCC(NC(=O)c2cc(Cl)c(N)c3c2OCC3)CC1.O=C(O)CCC(=O)O [Prucalopride Succinat] | 85% | 77% | 76% | – |
| OC(CCN1CCCCC1)(c1ccccc1)C1CCCCC1 (stereo not drawn) [Trihexyphenidyl hydrochloride] | – | – | – | % Phosphatase Activity (compared to DMSO) PRL-3 [1]: 106%; % Phosphatase Activity (compared to DMSO) PRL-2 [2]: 98%; % Phosphatase Activity (compared to DMSO) PRL-1 [3]: 100% |
| [H]/N=C(/N)N/C(=N/[H])NCCc1ccccc1 [Phenformin HCl] | 89% | 120% | 114% | – |
| NCCCC(O)(P(=O)(O)O)P(=O)(O)O [Alendronate] | – | – | – | % Phosphatase Activity (compared to DMSO) PRL-3 [1]: 79%; % Phosphatase Activity (compared to DMSO) PRL-2 [2]: 93%; % Phosphatase Activity (compared to DMSO) PRL-1 [3]: 110% |
| COc1ccc(C(=O)CC(=O)c2ccc(C(C)(C)C)cc2)cc1 [Avobenzone] | 87% | 68% | 93% | – |
| Cc1cc(C)c2c(c1)[C@@H](N(Cc1cc(C(F)(F)F)cc(C(F)(F)F)c1)c1nnn(C)n1)CCCN2C[C@H]1CC[C@H](C(=O)O)CC1 [Evacetrapib (LY2484595)] | 84% | 86% | 84% | – |
| CCOC(=O)c1c(C)n(C)c2ccc(O)cc12 [Mecarbinate] | 77% | 100% | 108% | – |
| Cl.NCC(=O)CCC(=O)O [5-Aminolevulinic acid HCl] | 86% | 130% | 106% | – |
| CCCC(CCC)C(=O)O[C@H]1C[C@H]2CC[C@@H](C1)[N+]2(C)C [Anisotropine Methylbromide] | 77% | 108% | 111% | – |
| Cc1ccc(Nc2nccc(N(C)c3ccc4c(C)n(C)nc4c3)n2)cc1S(N)(=O)=O [Pazopanib] | 89% | 100% | 97% | – |
| O=C(O)CCNC(=O)c1ccccc1 [Betamipron] | 75% | 95% | 98% | – |
| O=C(c1ccccc1)c1ccc2n1CCC2C(=O)O (stereo not drawn) [Ketorolac] | 78% | 97% | 98% | – |
| FC(F)(F)C(Cl)Br (stereo not drawn) [Halothane] | 79% | 95% | 102% | – |
